# Laboratory results reported in patent US9580390B2, “Indazole compounds as kinase inhibitors and method of treating cancer with same” (University Health Network, priority 2011, dated 2017).
# Where two headings read alike, the source gives them in different places.
# How the values were obtained:
# TICs (Colon 12) = assay: Colon tumor-initiating cell growth inhibition (Alamar Blue); type: cell-based; details: 216 h, 9 days, read-out: Tumor Initiating Cell GI50 Range Colon 12
# [1] = test system: colon cancer cells (HCT116); assay: Cancer cell line growth inhibition (SRB assay); type: cell-based; details: read-out: Cancer Cell Line GI50 Range HCT116
# TICs (Ovarian 2393A) = assay: Ovarian tumor-initiating cell growth inhibition (Alamar Blue); type: cell-based; details: 144 h; ovarian TICs, 6 days, Alamar Blue; read-out: Tumor Initiating Cell GI50 Range Ovarain 2393A
# Breast cancer cells = assay: Cancer cell line growth inhibition (SRB assay); type: cell-based; details: Homo sapiens; MDA-MB-468; read-out: Cancer Cell Line GI50 Range MDA-MB-468
# [2] = test system: ovarian cancer cells (PA-1); assay: Cancer cell line growth inhibition (SRB assay); type: cell-based; details: PA-1, read-out: Cancer Cell Line GI50 Range PA-1
# human TTK = target: T1, human TTK (Homo sapiens, UniProt P33981); assay: TTK inhibition assay (indirect ELISA); type: biochemical; details: read-out: TTK IC50 Range
# T1 construct: amino terminal GST fusion of full length human TTK; purchased Invitrogen
# T1 sequence (P33981 1-857): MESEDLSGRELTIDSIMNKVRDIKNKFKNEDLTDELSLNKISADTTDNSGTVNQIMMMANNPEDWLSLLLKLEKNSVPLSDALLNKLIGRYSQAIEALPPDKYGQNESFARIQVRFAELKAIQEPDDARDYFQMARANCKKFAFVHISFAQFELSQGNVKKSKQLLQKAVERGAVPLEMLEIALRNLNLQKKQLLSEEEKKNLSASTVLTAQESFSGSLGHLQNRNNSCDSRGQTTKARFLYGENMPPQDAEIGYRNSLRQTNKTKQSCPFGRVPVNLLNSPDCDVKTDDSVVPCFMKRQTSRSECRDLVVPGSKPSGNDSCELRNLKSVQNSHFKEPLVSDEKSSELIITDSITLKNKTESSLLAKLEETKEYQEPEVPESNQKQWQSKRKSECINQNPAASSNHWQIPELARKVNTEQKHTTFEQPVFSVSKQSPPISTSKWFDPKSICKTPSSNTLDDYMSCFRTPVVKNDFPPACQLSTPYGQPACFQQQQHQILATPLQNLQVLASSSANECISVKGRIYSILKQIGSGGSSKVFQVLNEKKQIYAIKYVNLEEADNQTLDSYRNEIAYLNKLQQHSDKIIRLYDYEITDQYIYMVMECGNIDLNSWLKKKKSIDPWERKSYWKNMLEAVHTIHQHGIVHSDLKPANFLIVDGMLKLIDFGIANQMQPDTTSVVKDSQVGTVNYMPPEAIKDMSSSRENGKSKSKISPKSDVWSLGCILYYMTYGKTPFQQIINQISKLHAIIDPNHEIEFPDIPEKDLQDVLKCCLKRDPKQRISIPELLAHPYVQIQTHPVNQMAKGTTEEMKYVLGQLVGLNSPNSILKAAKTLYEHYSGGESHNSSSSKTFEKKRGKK
# [3] = Homo sapiens, HCT-116, HCT116 colon cancer cells, SRB assay
Structure (SMILES),"GI50 (TICs (Colon 12); colon TICs, Alamar Blue) [nM]","GI50 [1, 3] [nM]",GI50 (TICs (Ovarian 2393A)) [nM],GI50 (Breast cancer cells) [nM],GI50 ([2]; Homo sapiens) [nM],GI50 (TICs (Colon 12); Colon 12 TICs) [nM],"GI50 ([1]; Homo sapiens, HCT-116) [nM]",IC50 (human TTK) [nM],GI50 [2] [nM],GI50 ([1]; HCT116) [nM]
"CO[C@@H](C(=O)Nc1ccc2[nH]nc(-c3ccc(OC4CCN(C)CC4)cc3)c2c1)c1ccccc1 [Example A27, (R)-2-methoxy-N-(3-(4-((1-methylpiperidin-4-yl)oxy)phenyl)-1H-indazol-5-yl)-2-phenylacetamide]",100 to 500,< 100,100 to 500,,,,,,,
"C[C@H]1CCCN1[C@H](C(=O)Nc1ccc2[nH]nc(-c3ccc(OC4CCN(C)CC4)cc3)c2c1)c1ccsc1 [Example A41, (S)-N-(3-(4-((1-methylpiperidin-4-yl)oxy)phenyl)-1H-indazol-5-yl)-2-((S)-2-methylpyrrolidin-1-yl)-2-(thiophen-3-yl)acetamide]",100 to 500,< 100,< 100,,,,,,,
"CCc1cccc(CC)c1NC(=O)Nc1ccc2[nH]nc(-c3ccc(OC4CCN(C)CC4)cc3)c2c1 [Example A46, 1-(2,6-diethylphenyl)-3-(3-(4-((1-methylpiperidin-4-yl)oxy)phenyl)-1H-indazol-5-yl)urea]",> 500,< 100,100 to 500,,,,,,,
"CC(C)[C@H](NC(=O)c1ccc2[nH]nc(-c3ccc(N4CC(N5CCOCC5)C4)cc3)c2c1)c1ccccc1Cl [Example A313, (S)-N-(1-(2-chlorophenyl)-2-methylpropyl)-3-(4-(3-morpholinoazetidin-1-yl)phenyl)-1H-indazole-5-carboxamide]",,,,< 100,< 100,< 100,< 100,< 100,,
O=C(N[C@H](c1ccccn1)C1CCCC1)c1ccc2[nH]nc(-c3ccc(N4CC(N5CCOCC5)C4)cc3)c2c1 [Example A314],,,,< 100,< 100,< 100,< 100,< 100,,
"O=C(N[C@@H](c1ccccn1)C1CCCC1)c1ccc2[nH]nc(-c3ccc(N4C5CCC4CC(O)C5)cc3)c2c1 (stereo partly drawn) [Example A364, N-((R)-cyclopentyl(pyridin-2-yl)methyl)-3-(4-((1R,3R,5S)-3-hydroxy-8-azabicyclo[3.2.1]octan-8-yl)phenyl)-1H-indazole-5-carboxamide]",,,,< 100,< 100,< 100,< 100,< 100,,
"O=C(N[C@@H](c1ncccn1)C1CCCC1)c1ccc2[nH]nc(-c3ccc(N4C5CCC4CC(O)C5)cc3)c2c1 (stereo partly drawn) [Example A366, N-((R)-cyclopentyl(pyrimidin-2-yl)methyl)-3-(4-((1R,3R,5S)-3-hydroxy-8-azabicyclo[3.2.1]octan-8-yl)phenyl)-1H-indazole-5-carboxamide]",,,,< 100,< 100,< 100,< 100,< 100,,
"O=C(N[C@H](c1ncccn1)C1CCCC1)c1ccc2[nH]nc(-c3ccc(N4C5CCC4CC(O)C5)cc3)c2c1 (stereo partly drawn) [Example A367, N-((S)-cyclopentyl(pyrimidin-2-yl)methyl)-3-(4-((1R,3S,5S)-3-hydroxy-8-azabicyclo[3.2.1]octan-8-yl)phenyl)-1H-indazole-5-carboxamide]",,,,< 100,< 100,< 100,< 100,< 100,,
"O=C(N[C@H](c1ccccn1)C1CC1)c1ccc2[nH]nc(-c3ccc(N4[C@@H]5CC[C@H]4COC5)cc3)c2c1 [Example A414, 3-(4-((1R,5S)-3-oxa-8-azabicyclo[3.2.1]octan-8-yl)phenyl)-N-((S)-cyclopropyl(pyridin-2-yl)methyl)-1H-indazole-5-carboxamide]",,,,< 100,< 100,< 100,< 100,< 100,,
"O=C(NCC1(N2CCOCC2)CCCOC1)c1ccc2[nH]nc(-c3ccc(N4C5CCC4CC(O)C5)cc3)c2c1 [Example A495, 3-(4-((1R,3R.5S)-3-hydroxy-8-azabicyclo[3.2.1]octan-8-yl)phenyl)-N-((3-morpholinotetrahydro-2H-pyran-3-yl)methyl)-1H-indazole-5-carboxamide]",,,,100 to 500,< 100,,100 to 500,< 100,,
"O=C(NCC1(c2ccccc2)CCOCC1)c1ccc2[nH]nc(-c3ccc(N4CC(N5CCOCC5)C4)cc3)c2c1 [Example A499, 3-(4-(3-morpholinoazetidin-1-yl)phenyl)-N-((4-phenyltetrahydro-2H-pyran-4-yl)methyl)-1H-indazole-5-carboxamide]",,,,100 to 500,100 to 500,,100 to 500,< 100,,
"O=C(NCC1(N2CCOCC2)CCCCC1)c1ccc2[nH]nc(-c3ccc(N4[C@@H]5CC[C@H]4COC5)cc3)c2c1 [Example A501, 3-(4-((1R,5S)-3-oxa-8-azabicyclo[3.2.1]octan-8-yl)phenyl)-N-((1-morpholinocyclohexyl)methyl)-1H-indazole-5-carboxamide]",,,,< 100,< 100,< 100,< 100,< 100,,
"O=C(NCC1(N2CCOCC2)CCCCC1)c1ccc2[nH]nc(-c3ccc(O[C@H]4C[C@H]5CC[C@@H](C4)N5C4COC4)cc3)c2c1 [Example A507, N-((1-morpholinocyclohexyl)methyl)-3-(4-(((1R,3R,5S)-8-(oxetan-3-yl)-8-azabicyclo[3.2.1]octan-3-yl)oxy)phenyl)-1H-indazole-5-carboxamide]",,,,100 to 500,100 to 500,,100 to 500,< 100,,
"O=C(NCC1(CN2CCOCC2)CCCCC1)c1ccc2[nH]nc(-c3ccc(N4CCOCC4)cc3)c2c1 [Example A509, N-((1-(morpholinomethyl)cyclohexyl)methyl)-3-(4-morpholinophenyl)-1H-indazole-5-carboxamide]",,,,> 500,> 500,,> 500,< 100,,
"O=C(NCC1(CN2CCOCC2)CCCCC1)c1ccc2[nH]nc(-c3ccc(N4[C@@H]5CC[C@H]4COC5)cc3)c2c1 [Example A510, 3-(4-((1R,5S)-3-oxa-8-azabicyclo[3.2.1]octan-8-yl)phenyl)-N-((1-(morpholinomethyl)cyclohexyl)methyl)-1H-indazole-5-carboxamide]",,,,100 to 500,100 to 500,,100 to 500,< 100,,
"CC(C)C[C@H](NC(=O)c1ccc2[nH]nc(-c3ccc(OC4CCN(C5COC5)CC4)cc3)c2c1)c1ccccc1Cl [Example A511, (S)-N-(1-(2-chlorophenyl)-3-methylbutyl)-3-(4-((1-(oxetan-3-yl)piperidin-4-yl)oxy)phenyl)-1H-indazole-5-carboxamide]",,,,100 to 500,< 100,,100 to 500,< 100,,
O=C(N[C@@H](c1ccccn1)C1CC1)c1ccc2[nH]nc(-c3ccc(N4C5CCC4CC(O)C5)cc3)c2c1 (stereo partly drawn) [Example A512],,,,100 to 500,,,,< 100,< 100,< 100

# More lines, main results first:
"GI50 (TICs (Colon 12); colon TICs, Alamar Blue) [nM]","GI50 [1, 3] [nM]",GI50 (TICs (Ovarian 2393A)) [nM],Structure (SMILES),GI50 (Breast cancer cells) [nM],GI50 ([2]; Homo sapiens) [nM],GI50 (TICs (Colon 12); Colon 12 TICs) [nM],"GI50 ([1]; Homo sapiens, HCT-116) [nM]",IC50 (human TTK) [nM],GI50 [2] [nM],GI50 ([1]; HCT116) [nM]
< 100,< 100,100 to 500,O=C(Nc1ccc2[nH]nc(-c3ccc(N4CCOCC4)cc3)c2c1)C(c1ccsc1)N1CCCC1 (stereo not drawn) [Example A4],,,,,,,
> 500,< 100,100 to 500,"O=C(NC(c1ccccc1)C1CC1)c1ccc2[nH]nc(-c3ccc(N4CCOCC4)cc3)c2c1 (stereo not drawn) [Example A12, N-(cyclopropyl(phenyl)methyl)-3-(4-morpholinophenyl)-1H-indazole-5-carboxamide]",,,,,,,
100 to 500,< 100,100 to 500,"CN1CCC(Oc2ccc(-c3n[nH]c4ccc(C(=O)NC(c5ccsc5)C5CC5)cc34)cc2)CC1 (stereo not drawn) [Example A33, N-(cyclopropyl(thiophen-3-yl)methyl)-3-(4-((1-methylpiperidin-4-yl)oxy)phenyl)-1H-indazole-5-carboxamide]",,,,,,,
> 500,< 100,100 to 500,"O=C(NC(c1ccsc1)C1CC1)c1ccc2[nH]nc(-c3ccc(N4CCOCC4)cc3)c2c1 (stereo not drawn) [Example A35, N-(cyclopropyl(thiophen-3-yl)methyl)-3-(4-morpholinophenyl)-1H-indazole-5-carboxamide]",,,,,,,
